In patent US10179790B2 (THOMAS HELLEDAYS STIFTELSE FOR MEDICINSK FORSKNING, priority 2014, dated 2019):

Legend:
MTH1 = MTH1 (Homo sapiens, UniProt P36639); assay: MTH1 enzymatic assay and IC50 value determination (malachite green, 96- and 384-well format); assay type: biochemical; conditions: hydrolysis of dGTP (100 μM), MTH1 6 nM, pyrophosphatase-coupled malachite green, 15 minutes at 22° C.
Protocol: MTH1 Enzymatic Assay and IC50 Value Determination
MTH1 catalyzes the hydrolysis of dGTP to dGMP and PPi. By coupling the reaction to pyrophosphatase added in excess PPi is converted to Pi that can be detected by using the malachite green assay reagent. Two different formats were used for IC50 determinations in the enzymatic assay, 96- and 384-well format. 96-Well Method:
Briefly, the compound to be analyzed is diluted in DMSO in a 1:3 dilution series generating 12 different compound concentrations giving a final DMSO concentration of 1% in the assay well. MTH1 diluted in assay buffer (100 mM Tris-acetate, 40 mM NaCl, 10 mM magnesium acetate, 1 mM DTT and 0.005% Tween 20) fortified with E. coli pyrophosphatase (0.2 U/ml) is added to a final concentration of 6 nM. dGTP diluted in assay buffer is added to a final concentration of 100 μM. The reaction mixture is incubated for 15 minutes at 22° C. To 100 μl reaction mixture, 25 μl Malachite green assay regent (0.095% Malachite green in 17% H2SO4, 1.5% Ammonium molybdate, 0.17% Tween 20) is added, followed by incubation with shaking for 15 minutes at 22° C. The absorbance of the assay plate is read at 630 nm using a Hidex Sense Multilabel plate reader. The IC50 value is determined by fitting a dose response curve to the data points using nonlinear regression analysis and the equation Y=Bottom+(Top−Bottom)/(1+10^((Log IC50−X)*HillSlope)), where Y is the read absorbance at 630 nm and X is log [compound].
The compounds to be tested are nano-dispensed, in 11 concentrations, directly in assay plates, with a final DMSO concentration <1%. The protocol and the reaction mixture are the same as for the 96-well assay, with a total reaction volume of 50 μl/well to which 10 μl of Malachite green reagent is added. All additions to the assay plates are made with multidrop.

cancer cell = assay: Cell viability assay (resazurin); assay type: cell-based; conditions: 72 h; 3 days with compound, resazurin fluorescence; cell line not named
Protocol: The utility of the compounds of the present invention can be illustrated, for example, by their activity in vitro in the cancer cell clonogenic and/or viability assay described below. The link between activity in tumor cell clonogenic assay and anti-tumor activity in the clinical setting has been well established in the art (e.g. see ref Silverstini et al Stem Cells 1993, 11(6), 258-35).
Cells are seeded into 96 well plates (1000-3000 cells/well) in DMEM GlutaMAX™ or other suitable media dependent on cell line and incubated overnight in 5% CO2, 37° C. Thereafter cells are treated with compound or vehicle and left in incubator for 3 days until staining with resazurin. Cells are incubated in resazurin (diluted in suitable media) at 37° C. for 2 hours before measuring the fluorescence (Ex544/Em590).
The compounds to be tested are nano-dispensed in 11 concentrations, directly in 384-well cell plates, with a final DMSO concentration <1%. Cells are seeded in cell plates, pre-dispensed with compounds, 50 μl/well (600-1200 cells/well). After 3 days culture in 5% CO2, 37° C., resazurin diluted in PBS is added, 10 μl/well, and cells are incubated 3 hours before measuring fluorescence (Ex544/Em590).

Row | Structure (SMILES) | IC50 (MTH1) | IC50 (cancer cell)
1 | Nc1nc(NCCNc2ccc3c(c2)NC(=O)CO3)cc(-c2cccc(Cl)c2Cl)n1 [Example 38, 6-[(2-{[2-amino-6-(2,3-dichlorophenyl)pyrimidin-4-yl]amino}ethyl)amino]-3,4-dihydro-2H-1,4-benzoxazin-3-one] | < 200 nM | < 500 nM
2 | Cc1nc2ccc(NCCNc3cc(-c4cccc(Cl)c4Cl)nc(N)n3)cc2s1 [Example 39, 6-(2,3-dichlorophenyl)-4-N-{2-[(2-methyl-1,3-benzothiazol-6-yl)amino]ethyl}pyrimidine-2,4-diamine] | < 200 nM | < 500 nM
3 | Cc1cccc(-c2cc(NCCNc3cccc(S(C)(=O)=O)c3)nc(N)n2)c1C [Example 40, 6-(2,3-dimethylphenyl)-4-N-{2-[(3-methanesulfonylphenyl)amino]ethyl}pyrimidine-2,4-diamine] | < 200 nM | < 500 nM
4 | Cc1cccc(-c2cc(NCCNc3ccc(S(N)(=O)=O)cc3F)nc(N)n2)c1C [Example 42, 4-[(2-{[2-amino-6-(2,3-dimethylphenyl)pyrimidin-4-yl]amino}ethyl)amino]-3-fluorobenzene-1-sulfonamide] | < 200 nM | < 500 nM
5 | Cc1c(Cl)cccc1-c1cc(NCCc2ccc(C(N)=O)cc2)nc(N)n1 [Example 43, 4-(2-{[2-amino-6-(3-chloro-2-methylphenyl)pyrimidin-4-yl]amino}ethyl)benzamide] | < 200 nM | < 500 nM
6 | Cc1cccc(-c2cc(NCCc3ccc(C(N)=O)cc3)nc(N)n2)c1C [Example 44, 4-(2-{[2-amino-6-(2,3-dimethylphenyl)pyrimidin-4-yl]amino}ethyl)benzamide] | < 200 nM | < 500 nM
7 | CC(=O)Nc1cccc(CCNc2cc(-c3cccc(Cl)c3C)nc(N)n2)c1 [Example 46, N-[3-(2-{[2-amino-6-(3-chloro-2-methylphenyl)pyrimidin-4-yl]amino}ethyl)phenyl]acetamide] | < 200 nM | < 500 nM
8 | CCOC(=O)Nc1cccc(CCNc2cc(-c3cccc(Cl)c3C)nc(N)n2)c1 [Example 47, ethyl N-[3-(2-{[2-amino-6-(3-chloro-2-methylphenyl)pyrimidin-4-yl]amino}ethyl)phenyl]carbamate] | < 200 nM | < 500 nM
9 | Cc1c(Cl)cccc1-c1cc(NCCc2ccc3c(c2)NC(=O)CO3)nc(N)n1 [Example 48, 6-(2-{[2-amino-6-(3-chloro-2-methylphenyl)pyrimidin-4-yl]amino}ethyl)-3,4-dihydro-2H-1,4-benzoxazin-3-one] | < 200 nM | < 500 nM
10 | COC(=O)c1cnc(NCCNc2cc(-c3cccc(C)c3C)nc(N)n2)cn1 [Example 49, methyl 5-[(2-{[2-amino-6-(2,3-dimethylphenyl)pyrimidin-4-yl]amino}ethyl)amino]pyrazine-2-carboxylate] | < 200 nM | < 500 nM
11 | Cc1c(Cl)cccc1-c1cc(NCCc2cccc(S(C)(=O)=O)c2)nc(N)n1 [Example 52, 6-(3-chloro-2-methylphenyl)-4-N-[2-(3-methanesulfonylphenyl)ethyl]pyrimidine-2,4-diamine] | < 200 nM | < 500 nM
12 | Cc1c(Cl)cccc1-c1cc(NCCc2cccc(S(N)(=O)=O)c2)nc(N)n1 [Example 53, 3-(2-{[2-amino-6-(3-chloro-2-methylphenyl)pyrimidin-4-yl]amino}ethyl)benzene-1-sulfonamide] | < 200 nM | < 500 nM
13 | Nc1nc(NCCc2cccc(S(N)(=O)=O)c2)cc(-c2cccc(Cl)c2Cl)n1 [Example 54, 3-(2-{[2-amino-6-(2,3-dichlorophenyl)pyrimidin-4-yl]amino}ethyl)benzene-1-sulfonamide] | < 200 nM | < 500 nM

Results, then the compound that gave them:

Row | IC50 (MTH1) | IC50 (cancer cell) | Structure (SMILES)
14 | < 200 nM | < 500 nM | Cc1cccc(-c2cc(NCCNc3nccc(C(N)=O)n3)nc(N)n2)c1C [Example 16, 2-[(2-{[2-amino-6-(2,3-dimethylphenyl)pyrimidin-4-yl]amino}ethyl)amino]pyrimidine-4-carboxamide]
15 | < 200 nM | < 500 nM | CC(=O)Nc1ccc(CCNc2cc(-c3cccc(C)c3C)nc(N)n2)cc1 [Example 19, N-[4-(2-{[2-amino-6-(2,3-dimethylphenyl)pyrimidin-4-yl]amino}ethyl)phenyl]acetamide]
16 | < 200 nM | < 500 nM | Cc1cccc(-c2cc(NCCc3ccc(NS(C)(=O)=O)cc3)nc(N)n2)c1C [Example 20, N-[4-(2-{[2-amino-6-(2,3-dimethylphenyl)pyrimidin-4-yl]amino}ethyl)phenyl]methanesulfonamide]
17 | < 200 nM | < 500 nM | CNS(=O)(=O)c1ccc(NCCNc2cc(-c3cccc(C)c3C)nc(N)n2)cc1 [Example 21, 4-[(2-{[2-amino-6-(2,3-dimethylphenyl)pyrimidin-4-yl]amino}ethyl)amino]-N-methylbenzene-1-sulfonamide]
18 | < 200 nM | < 500 nM | CC(=O)Nc1ccc(NCCNc2cc(-c3cccc(C)c3C)nc(N)n2)cc1C [Example 22, N-{4-[(2-{[2-amino-6-(2,3-dimethylphenyl)pyrimidin-4-yl]amino}ethyl)amino]-2-methylphenyl}acetamide]
19 | < 200 nM | < 500 nM | Cc1cccc(-c2cc(NCCNc3ccc4c(c3)NC(=O)CO4)nc(N)n2)c1C [Example 23, 6-[(2-{[2-amino-6-(2,3-dimethylphenyl)pyrimidin-4-yl]amino}ethyl)amino]-3,4-dihydro-2H-1,4-benzoxazin-3-one]
20 | < 200 nM | < 500 nM | Cc1cccc(-c2cc(NCCNc3ccccc3C(N)=O)nc(N)n2)c1C [Example 24, 2-[(2-{[2-amino-6-(2,3-dimethylphenyl)pyrimidin-4-yl]amino}ethyl)amino]benzamide]
21 | < 200 nM | < 500 nM | Cc1cccc(-c2cc(NCCOc3ccc(C(N)=O)cn3)nc(N)n2)c1C [Example 26, 6-(2-{[2-amino-6-(2,3-dimethylphenyl)pyrimidin-4-yl]amino}ethoxy)pyridine-3-carboxamide]
22 | < 200 nM | < 500 nM | CCOC(=O)c1ccc(NCCNc2cc(-c3cccc(C)c3C)nc(N)n2)nc1 [Example 28, ethyl 6-[(2-{[2-amino-6-(2,3-dimethylphenyl)pyrimidin-4-yl]amino}ethyl)amino]pyridine-3-carboxylate]
23 | < 200 nM | < 500 nM | Cc1cccc(-c2cc(NCCNc3ccc(S(N)(=O)=O)c(C(F)(F)F)c3)nc(N)n2)c1C [Example 29, 4-[(2-{[2-amino-6-(2,3-dimethylphenyl)pyrimidin-4-yl]amino}ethyl)amino]-2-(trifluoromethyl)benzene-1-sulfonamide]
24 | < 200 nM | < 500 nM | Cc1cccc(-c2cc(NCCNc3ccc(C(N)=O)cc3)nc(N)n2)c1C [Example 30, 4-[(2-{[2-amino-6-(2,3-dimethylphenyl)pyrimidin-4-yl]amino}ethyl)amino]benzamide]
25 | < 200 nM | < 500 nM | CCOC(=O)Nc1ccc(CCNc2cc(-c3cccc(C)c3C)nc(N)n2)cc1 [Example 31, ethyl N-[4-(2-{[2-amino-6-(2,3-dimethylphenyl)pyrimidin-4-yl]amino}ethyl)phenyl]carbamate]
26 | < 200 nM | < 500 nM | COc1ccc(NCCNc2cc(-c3cccc(C)c3C)nc(N)n2)cc1S(N)(=O)=O [Example 32, 5-[(2-{[2-amino-6-(2,3-dimethylphenyl)pyrimidin-4-yl]amino}ethyl)amino]-2-methoxybenzene-1-sulfonamide]
27 | < 200 nM | < 500 nM | Cc1c(Cl)cccc1-c1cc(NCCNc2ccc3c(c2)NC(=O)CO3)nc(N)n1 [Example 35, 6-[(2-{[2-amino-6-(3-chloro-2-methylphenyl)pyrimidin-4-yl]amino}ethyl)amino]-3,4-dihydro-2H-1,4-benzoxazin-3-one]
28 | < 200 nM | < 500 nM | Cc1nc2ccc(NCCNc3cc(-c4cccc(C)c4C)nc(N)n3)cc2s1 [Example 36, 6-(2,3-dimethylphenyl)-4-N-{2-[(2-methyl-1,3-benzothiazol-6-yl)amino]ethyl}pyrimidine-2,4-diamine]
